Laboratory results published in PMC10364322, “Evaluation of chronic drug-induced electrophysiological and cytotoxic effects using human-induced pluripotent stem cell-derived cardiomyocytes (hiPSC-CMs)” (Frontiers in Pharmacology, 2023).
Like-named read-outs stand apart in the source and are kept apart here.

Tested on: hiPSC-CMs (iCell-Cardiomyocytes^2)
Procedure, shortened: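 Monolayers of hiPSC-CMs on fibronectin-coated MEA plates, 50 K/well, kept at 37°C, 5% CO2; compounds added in 0.1% final DMSO after 5-min baseline. Field potential and impedance parameters expressed as mean ± SD percent change from baseline; arrhythmic events noted; cytotoxicity fluorescence normalized to DMSO, Kruskal-Wallis.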

## C#Cc1cccc(Nc2ncnc3cc(OCCOC)c(OCCOC)cc23)c1 [Erlotinib]
0.3 µM, 2h
  BR (beat rate) % change from baseline: 3±3%
  Beating below threshold, number of observations/total well numbers: 0/5
  Cessation of beating, number of observations/total well numbers: 0/5
  EAD, number of observations/total well numbers: 0/5
  FPD (field-potential duration), % change from baseline: 0.6±0.9%
  FPDc (field-potential duration corrected by beat-rate), % change from baseline: 1.6±1.1%
  Flat T-wave-like, number of observations/total well numbers: 0/5
0.3 µM, 24h
  BR (beat rate) % change from baseline: -1±5%
  Beating below threshold, number of observations/total well numbers: 0/5
  Cessation of beating, number of observations/total well numbers: 0/5
  EAD, number of observations/total well numbers: 0/5
  FPD (field-potential duration), % change from baseline: 7.8±3.3%
  FPDc (field-potential duration corrected by beat-rate), % change from baseline: 7.4±1.9%
  Flat T-wave-like, number of observations/total well numbers: 0/5
0.3 µM, 48h
  BR (beat rate) % change from baseline: -12±1%
  Beating below threshold, number of observations/total well numbers: 0/5
  Cessation of beating, number of observations/total well numbers: 0/5
  EAD, number of observations/total well numbers: 0/5
  FPD (field-potential duration), % change from baseline: 16.2±1.3%
  FPDc (field-potential duration corrected by beat-rate), % change from baseline: 11.5±0.7%
  Flat T-wave-like, number of observations/total well numbers: 0/5
0.3 µM, 72h
  BR (beat rate) % change from baseline: -8±2%
  Beating below threshold, number of observations/total well numbers: 0/5
  Cessation of beating, number of observations/total well numbers: 0/5
  EAD, number of observations/total well numbers: 0/5
  FPD (field-potential duration), % change from baseline: 14.6±3.1%
  FPDc (field-potential duration corrected by beat-rate), % change from baseline: 11.4±2.8%
  Flat T-wave-like, number of observations/total well numbers: 0/5
0.3 µM, 96h
  BR (beat rate) % change from baseline: -14±1%
  Beating below threshold, number of observations/total well numbers: 0/5
  Cessation of beating, number of observations/total well numbers: 0/5
  EAD, number of observations/total well numbers: 0/5
  FPD (field-potential duration), % change from baseline: 21.2±1.9%
  FPDc (field-potential duration corrected by beat-rate), % change from baseline: 15.1±1.6%
  Flat T-wave-like, number of observations/total well numbers: 0/5
1 µM, 2h
  BR (beat rate) % change from baseline: 1±1%
  Beating below threshold, number of observations/total well numbers: 0/5
  Cessation of beating, number of observations/total well numbers: 0/5
  EAD, number of observations/total well numbers: 0/5
  FPD (field-potential duration), % change from baseline: 3.4±1%
  FPDc (field-potential duration corrected by beat-rate), % change from baseline: 3.8±0.8%
  Flat T-wave-like, number of observations/total well numbers: 0/5
1 µM, 24h
  BR (beat rate) % change from baseline: 0±5%
  Beating below threshold, number of observations/total well numbers: 0/5
  Cessation of beating, number of observations/total well numbers: 0/5
  EAD, number of observations/total well numbers: 0/5
  FPD (field-potential duration), % change from baseline: 5.5±5.8%
  FPDc (field-potential duration corrected by beat-rate), % change from baseline: 5.6±4%
  Flat T-wave-like, number of observations/total well numbers: 0/5
1 µM, 48h
  BR (beat rate) % change from baseline: -13±3%
  Beating below threshold, number of observations/total well numbers: 0/5
  Cessation of beating, number of observations/total well numbers: 0/5
  EAD, number of observations/total well numbers: 0/5
  FPD (field-potential duration), % change from baseline: 16.6±3.6%
  FPDc (field-potential duration corrected by beat-rate), % change from baseline: 11.3±2.2%
  Flat T-wave-like, number of observations/total well numbers: 0/5
1 µM, 72h
  BR (beat rate) % change from baseline: -9±2%
  Beating below threshold, number of observations/total well numbers: 0/5
  Cessation of beating, number of observations/total well numbers: 0/5
  EAD, number of observations/total well numbers: 0/5
  FPD (field-potential duration), % change from baseline: 14.7±3.9%
  FPDc (field-potential duration corrected by beat-rate), % change from baseline: 11±3.3%
  Flat T-wave-like, number of observations/total well numbers: 0/5
1 µM, 96h
  BR (beat rate) % change from baseline: -16±2%
  Beating below threshold, number of observations/total well numbers: 0/5
  Cessation of beating, number of observations/total well numbers: 0/5
  EAD, number of observations/total well numbers: 0/5
  FPD (field-potential duration), % change from baseline: 22.4±3.5%
  FPDc (field-potential duration corrected by beat-rate), % change from baseline: 15.1±2.5%
  Flat T-wave-like, number of observations/total well numbers: 0/5
3 µM, 72h
  BR (beat rate) % change from baseline: -10±2%
  Beating below threshold, number of observations/total well numbers: 0/5
  Cessation of beating, number of observations/total well numbers: 0/5
  EAD, number of observations/total well numbers: 0/5
  FPD (field-potential duration), % change from baseline: 10.9±3.3%
  FPDc (field-potential duration corrected by beat-rate), % change from baseline: 7.1±2.8%
  Flat T-wave-like, number of observations/total well numbers: 0/5
3 µM, 96h
  BR (beat rate) % change from baseline: -18±2%
  Beating below threshold, number of observations/total well numbers: 0/5
  Cessation of beating, number of observations/total well numbers: 0/5
  EAD, number of observations/total well numbers: 0/5
  FPD (field-potential duration), % change from baseline: 18.9±1.9%
  FPDc (field-potential duration corrected by beat-rate), % change from baseline: 11.7±1.1%
  Flat T-wave-like, number of observations/total well numbers: 0/5
3 µM, 2h
  BR (beat rate) % change from baseline: 1±2%
  Beating below threshold, number of observations/total well numbers: 0/5
  Cessation of beating, number of observations/total well numbers: 0/5
  EAD, number of observations/total well numbers: 0/5
  FPD (field-potential duration), % change from baseline: 2±3%
  FPDc (field-potential duration corrected by beat-rate), % change from baseline: 2.4±2.4%
  Flat T-wave-like, number of observations/total well numbers: 0/5
3 µM, 24h
  BR (beat rate) % change from baseline: 2±3%
  Beating below threshold, number of observations/total well numbers: 0/5
  Cessation of beating, number of observations/total well numbers: 0/5
  EAD, number of observations/total well numbers: 0/5
  FPD (field-potential duration), % change from baseline: 0.1±4%
  FPDc (field-potential duration corrected by beat-rate), % change from baseline: 0.7±3%
  Flat T-wave-like, number of observations/total well numbers: 0/5
3 µM, 48h
  BR (beat rate) % change from baseline: -13±3%
  Beating below threshold, number of observations/total well numbers: 0/5
  Cessation of beating, number of observations/total well numbers: 0/5
  EAD, number of observations/total well numbers: 0/5
  FPD (field-potential duration), % change from baseline: 11±2.4%
  FPDc (field-potential duration corrected by beat-rate), % change from baseline: 5.9±1.1%
  Flat T-wave-like, number of observations/total well numbers: 0/5
10 µM (highest concentration)
  wells with flat T-wave: One well on 5
10 µM, 2h
  BR (beat rate) % change from baseline: 1±1%
  Beating below threshold, number of observations/total well numbers: 0/5
  Cessation of beating, number of observations/total well numbers: 0/5
  EAD, number of observations/total well numbers: 0/5
  FPD (field-potential duration), % change from baseline: 3.5±0.9%
  FPDc (field-potential duration corrected by beat-rate), % change from baseline: 3.9±1.1%
  Flat T-wave-like, number of observations/total well numbers: 0/5
10 µM, 24h
  BR (beat rate) % change from baseline: -1±7%
  Beating below threshold, number of observations/total well numbers: 0/5
  Cessation of beating, number of observations/total well numbers: 0/5
  EAD, number of observations/total well numbers: 0/5
  FPD (field-potential duration), % change from baseline: 7.2±5.8%
  FPDc (field-potential duration corrected by beat-rate), % change from baseline: 6.3±4.1%
  Flat T-wave-like, number of observations/total well numbers: 1/5
10 µM, 48h
  BR (beat rate) % change from baseline: -15±4%
  Beating below threshold, number of observations/total well numbers: 0/5
  Cessation of beating, number of observations/total well numbers: 0/5
  EAD, number of observations/total well numbers: 0/5
  FPD (field-potential duration), % change from baseline: 15.4±2.7%
  FPDc (field-potential duration corrected by beat-rate), % change from baseline: 8.7±1.6%
  Flat T-wave-like, number of observations/total well numbers: 1/5
10 µM, 72h
  BR (beat rate) % change from baseline: -13±4%
  Beating below threshold, number of observations/total well numbers: 0/5
  Cessation of beating, number of observations/total well numbers: 0/5
  EAD, number of observations/total well numbers: 0/5
  FPD (field-potential duration), % change from baseline: 16.4±6.7%
  FPDc (field-potential duration corrected by beat-rate), % change from baseline: 10.6±6%
  Flat T-wave-like, number of observations/total well numbers: 1/5
10 µM, 96h
  BR (beat rate) % change from baseline: -19±2%
  Beating below threshold, number of observations/total well numbers: 0/5
  Cessation of beating, number of observations/total well numbers: 0/5
  EAD, number of observations/total well numbers: 0/5
  FPD (field-potential duration), % change from baseline: 25±8.1%
  FPDc (field-potential duration corrected by beat-rate), % change from baseline: 16±6.6%
  Flat T-wave-like, number of observations/total well numbers: 1/5
All concentrations tested
  arrhythmic-like events: no arrhythmic-like events were observed
  changes in BR: nor significant changes in BR
  prolongation of FPD / FPDc: did not observe any physiologically relevant prolongation in FPD and FPDc
Up to ∼ three times the estimated fCmax
  effect on hiPSC-CMs electrophysiology or cytotoxicity: did not detect any significant effect on hiPSC-CMs electrophysiology or cytotoxicity
